For 6 molecules, inhibition, IC50 and Activity results are on record in ChEMBL document CHEMBL5385864, “Pose, duplicate, then elaborate: Steps towards increased affinity for inhibitors targeting the specificity surface of the Pim-1 kinase” (Eur J Med Chem, 2023).

Assay [1] addresses T1, Serine/threonine-protein kinase pim-1 (Homo sapiens, UniProt P11309). The assay is described as follows: Inhibition of Pim-1 activity (unknown origin) at 100 uM by Eurofins radiometric assay.
The target in assay [2] is T1, Serine/threonine-protein kinase pim-1. The assay is described as follows: Inhibition of Pim-1 activity (unknown origin) by Eurofins radiometric assay.
Assay [3] has the same target. Nature of the assay: Inhibition of Pim-1 activity (unknown origin) assessed as residual activity at 100 uM by Eurofins radiometric assay relative to control.
The target is the same in assay [4]. The assay is described as follows: Inhibition of Pim-1 in human NCE-G 55T2 cells assessed as reduction in p21 phosphorylation at Thr145 residue at 0.3 mM incubated for 24 hrs by Western blot analysis. The class given is cell-based.
Assay [5] can be described thus: Cytotoxicity against human NCE-G 55T2 cells assessed as inhibition of cell growth incubated for 3 days by WST-8 assay. The conditions noted are these: NCE-G 55T2, 72 h.
For a further assay, the system named is HCT-116. Nature of the assay: Cytotoxicity against human HCT-116 cells assessed as inhibition of cell growth incubated for 3 days by WST-8 assay. The conditions noted are these: HCT-116, 72 h.

Structures are written as SMILES. Active and inactive are the calls of the source. The rule behind the calls is not given here.

As to `Nc1ccc2c(c1)NC(=O)C2Cc1ccc(C(=O)O)cc1` (centres undefined), the inhibition entry in assay [1] was “Active”.
Regarding `O=C(O)c1ccc(Cc2coc3cc(O)ccc23)cc1`, half-maximal inhibition in assay [2] (IC50) required 26.4 µM. In addition, the Activity in assay [3] is under 50%.
With `Cc1cc(O)cc2occ(Cc3ccc(C(=O)O)cc3)c12`, in assay [3], the Activity is under 50%.
For the molecule `Nc1ccc2c(c1)NC(=O)/C2=C/c1ccc(C(=O)O)cc1`, in assay [4], the inhibition result is “Active”. For the same molecule, the half-maximal inhibitory concentration (IC50) in assay [2] came out at 0.6 µM.
Turning to `COC(=O)c1ccc(/C=C2/C(=O)Nc3cc(N)ccc32)cc1`, in assay [1], the inhibition entry was “Active”.
Take `O=C1Nc2ccccc2/C1=C\c1ccc(C(=O)O)cc1`: the IC50 in assay [5] was 100 µM; with HCT-116 it was 200 µM.
